In the supplement of paper PMC11061612:

Columns and labels:
Assay in all cases: Bliss excess, mean over the matrix (fraction); higher = more synergy
[1] = tested on: BL-41 (Burkitt's Lymphoma)
Procedure, shortened: (§1)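 After 24 hours at 37°C and 5% CO2 in 1536-well plates, cells in DMEM/F12 or RPMI plus 10% FBS received two-drug dose matrices for 72 hours. Viability came from CellTiter-Glo 2.0 luminescence and was scaled as inhibition, anchored at 0 by vehicle wells and at 1 by blank wells. Combination Emax is taken as the second-highest inhibition in the matrix, and Bliss excess as the observed combination effect less EA + EB − EA·EB, with EA and EB the single-agent effects.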

[2] = tested on: CAMA-1 (Breast Carcinoma)
Procedure, shortened: as §1

[3] = tested on: DND-41 (T-Lymphoblastic Leukemia)
Procedure, shortened: as §1

[4] = tested on: ES1 (Ewing's Sarcoma)
Procedure, shortened: as §1

[5] = tested on: ES8 (Ewing's Sarcoma)
Procedure, shortened: as §1

[6] = tested on: HDQ-P1 (Breast Carcinoma)
Procedure, shortened: as §1

[7] = tested on: KCL-22 (Chronic Myelogenous Leukemia)
Procedure, shortened: as §1

[8] = tested on: L-540 (Hodgkin's Lymphoma)
Procedure, shortened: as §1

[9] = tested on: LN-18 (Glioblastoma)
Procedure, shortened: as §1

[10] = tested on: MEL-JUSO (Melanoma)
Procedure, shortened: as §1

[11] = tested on: MFM-223 (Breast Carcinoma)
Procedure, shortened: as §1

[12] = tested on: MS751 (Cervical Carcinoma)
Procedure, shortened: as §1

[13] = tested on: NCI-H2818 (Mesothelioma)
Procedure, shortened: as §1

[14] = tested on: NCI-H847 (Small Cell Lung Carcinoma)
Procedure, shortened: as §1

[15] = tested on: SR (Other Blood Carcinomas)
Procedure, shortened: as §1

[16] = tested on: SU-DHL-8 (B-Cell Non-Hodgkin's Lymphoma)
Procedure, shortened: as §1

[17] = tested on: SW837 (Colorectal Carcinoma)
Procedure, shortened: as §1

[18] = tested on: TE-6 (Esophageal Squamous Cell Carcinoma)
Procedure, shortened: as §1

[19] = tested on: U251 (Low Grade Glioma)
Procedure, shortened: as §1

[20] = tested on: WM-115 (Melanoma)
Procedure, shortened: as §1

With C=CCn1c(=O)c2cnc(Nc3ccc(N4CCN(C)CC4)cc3)nc2n1-c1cccc(C(C)(C)O)n1 [AZD1775] + C1CN(CCC1(C(=O)N[C@@H](CCO)C2=CC=C(C=C2)Cl)N)C3=NC=NC4=C3C=CN4 [Capivasertib] (first compound max 3 µM, partner max 3 µM) the Bliss excess [1] was 0.0156, the Bliss excess [2] was -0.0244 and the Bliss excess [3] was -0.0428. For the same molecule, the Bliss excess [4] was -0.0219, the Bliss excess [5] was 0.0352 and the Bliss excess [6] was -0.0679. It also gave a Bliss excess [7] of 0.035, a Bliss excess [8] of -0.0019 and a Bliss excess [9] of 0.0196. For the same molecule, the Bliss excess [10] was -0.0352, the Bliss excess [11] was -0.0369 and the Bliss excess [12] was 0.0003. It also gave a Bliss excess [13] of -0.0493, a Bliss excess [14] of -0.0643 and a Bliss excess [15] of 0.0013. The Bliss excess [16] was 0.0097, the Bliss excess [17] was -0.0504 and the Bliss excess [18] was 0.0422. It also gave a Bliss excess [19] of -0.0223 and a Bliss excess [20] of -0.116.

In the case of CC(=O)Nc1cccc(-n2c(=O)n(C3CC3)c(=O)c3c(Nc4ccc(I)cc4F)n(C)c(=O)c(C)c32)c1 [Trametinib] + Cc1nc(-c2cn3c(n2)-c2ccc(-c4cnn(C(C)(C)C(N)=O)c4)cc2OCC3)n(C(C)C)n1 [Taselisib] (first compound max 1 µM, 7x7, partner max 10 µM), the Bliss excess [1] is reported as 0.0485, the Bliss excess [2] is reported as -0.0565 and the Bliss excess [3] is reported as 0.164. The Bliss excess [4] was 0.0161, the Bliss excess [5] was -0.0924 and the Bliss excess [6] was 0.221. The Bliss excess [7] was 0.292, the Bliss excess [8] was 0.0227 and the Bliss excess [9] was 0.0432. For the same molecule, the Bliss excess [10] was 0.12, the Bliss excess [11] was -0.0174 and the Bliss excess [12] was 0.128. It also gave a Bliss excess [13] of -0.0103, a Bliss excess [14] of 0.0603 and a Bliss excess [15] of 0.22. For the same molecule, the Bliss excess [16] was -0.0358, the Bliss excess [17] was 0.05 and the Bliss excess [18] was 0.0911. It also gave a Bliss excess [19] of 0.132 and a Bliss excess [20] of 0.048.

With Cc1c2c(nn1C)CSCc1cc(n(C)n1)CSc1cc(c3ccccc3c1)OCCCc1c(C(=O)O)n(C)c3c-2c(Cl)ccc13 [AZD5991] + CN(C)CCCOc1ccc(-c2ccc3ncc4c(c3c2)n(C2CCOCC2)c(=O)n4C)cn1 [AZD0156] (first compound max 1 µM, 7x7, partner max 1 µM) the Bliss excess [1] was 0.0168, the Bliss excess [2] was 0.002 and the Bliss excess [3] was 0.0195. For the same molecule, the Bliss excess [4] was 0.0092, the Bliss excess [5] was 0.0224 and the Bliss excess [6] was 0.0104. For the same molecule, the Bliss excess [7] was 0.0191, the Bliss excess [8] was -0.0021 and the Bliss excess [9] was 0.0444. For the same molecule, the Bliss excess [10] was 0.0023, the Bliss excess [11] was -0.0038 and the Bliss excess [12] was 0.0099. It also gave a Bliss excess [13] of -0.0052, a Bliss excess [14] of -0.0131 and a Bliss excess [15] of 0.0246. The Bliss excess [16] was -0.0377, the Bliss excess [17] was 0.0004 and the Bliss excess [18] was -0.0167. For the same molecule, the Bliss excess [19] was 0.0334 and the Bliss excess [20] was -0.0136.

For COc1cccc(OCCCN)c1-c1cc(Nc2cnc(C#N)cn2)n[nH]1 [Prexasertib] + C[C@@H]1COCCN1C2=NC(=NC(=C2)C3(CC3)[S@](=N)(=O)C)C4=C5C=CNC5=NC=C4 [AZD6738] (first compound max 1 µM, 7x7, partner max 10 µM), the Bliss excess [1] was -0.0066, the Bliss excess [2] was -0.0484 and the Bliss excess [3] was -0.0651. For the same molecule, the Bliss excess [4] was -0.0142, the Bliss excess [5] was -0.0371 and the Bliss excess [6] was 0.11. For the same molecule, the Bliss excess [7] was -0.0302, the Bliss excess [8] was -0.0341 and the Bliss excess [9] was 0.0188. The Bliss excess [10] was -0.0307, the Bliss excess [11] was -0.106 and the Bliss excess [12] was 0.0539. For the same molecule, the Bliss excess [13] was -0.0168, the Bliss excess [14] was -0.035 and the Bliss excess [15] was -0.0164. For the same molecule, the Bliss excess [16] was -0.0214, the Bliss excess [17] was 0.0106 and the Bliss excess [18] was 0.0669. The Bliss excess [19] was -0.0193 and the Bliss excess [20] was 0.0242.

CC1(C)CCC(CN2CCN(c3ccc(C(=O)NS(=O)(=O)c4ccc(NCC5CCOCC5)c([N+](=O)[O-])c4)c(Oc4cnc5[nH]ccc5c4)c3)CC2)=C(c2ccc(Cl)cc2)C1 [Venetoclax] + C=CCn1c(=O)c2cnc(Nc3ccc(N4CCN(C)CC4)cc3)nc2n1-c1cccc(C(C)(C)O)n1 [AZD1775] (first compound max 1 µM, partner max 1 µM) gave a Bliss excess [1] of -0.0319, a Bliss excess [2] of 0.0033 and a Bliss excess [3] of 0.103. For the same molecule, the Bliss excess [4] was 0.0747, the Bliss excess [5] was 0.0309 and the Bliss excess [6] was -0.014. The Bliss excess [7] was -0.0114, the Bliss excess [8] was 0.069 and the Bliss excess [9] was 0.0062. The Bliss excess [10] was -0.0447, the Bliss excess [11] was -0.0987 and the Bliss excess [12] was 0.0125. The Bliss excess [13] was -0.0649, the Bliss excess [14] was -0.0022 and the Bliss excess [15] was 0.062. The Bliss excess [16] was 0.0401, the Bliss excess [17] was 0.0009 and the Bliss excess [18] was -0.0859. For the same molecule, the Bliss excess [19] was -0.0787 and the Bliss excess [20] was -0.0465.

CN(C)CCCOc1ccc(-c2ccc3ncc4c(c3c2)n(C2CCOCC2)c(=O)n4C)cn1 [AZD0156] + C=CCn1c(=O)c2cnc(Nc3ccc(N4CCN(C)CC4)cc3)nc2n1-c1cccc(C(C)(C)O)n1 [AZD1775] (first compound max 1 µM, partner max 1 µM) showed a Bliss excess [1] of 0.0047, a Bliss excess [2] of -0.0726 and a Bliss excess [3] of -0.0029. The Bliss excess [4] was -0.0018, the Bliss excess [5] was -0.0464 and the Bliss excess [6] was 0.0118. For the same molecule, the Bliss excess [7] was -0.0326, the Bliss excess [8] was 0.0604 and the Bliss excess [9] was -0.0307. It also gave a Bliss excess [10] of 0.0243, a Bliss excess [11] of -0.0282 and a Bliss excess [12] of -0.0154. For the same molecule, the Bliss excess [13] was -0.0556, the Bliss excess [14] was -0.0114 and the Bliss excess [15] was -0.0509. The Bliss excess [16] was 0.0032, the Bliss excess [17] was -0.0431 and the Bliss excess [18] was -0.045. The Bliss excess [19] was 0.005 and the Bliss excess [20] was -0.0383.

COc1cc2c(cc1OCCCCCOc1cc3c(cc1OC)C(=O)N1C=C(C)C[C@H]1C=N3)N=C[C@@H]1CC(C)=CN1C2=O [SG3199] + O=C(c1cc(Cc2n[nH]c(=O)c3ccccc23)ccc1F)N1CCN(C(=O)C2CC2)CC1 [Olaparib] (first compound max 0.001 µM, 7x7, partner max 10 µM) gave a Bliss excess [1] of -0.0163, a Bliss excess [2] of -0.0443 and a Bliss excess [3] of -0.0067. It also gave a Bliss excess [4] of 0.0027, a Bliss excess [5] of -0.0206 and a Bliss excess [6] of -0.035. The Bliss excess [7] was -0.0049, the Bliss excess [8] was -0.0272 and the Bliss excess [9] was -0.0119. For the same molecule, the Bliss excess [10] was -0.024, the Bliss excess [11] was -0.0307 and the Bliss excess [12] was -0.075. For the same molecule, the Bliss excess [13] was -0.0642, the Bliss excess [14] was -0.0375 and the Bliss excess [15] was 0.0238. It also gave a Bliss excess [16] of 0.0547, a Bliss excess [17] of -0.0384 and a Bliss excess [18] of -0.0256. The Bliss excess [19] was -0.0016 and the Bliss excess [20] was -0.0494.
